The results in this text go back to patent US5532267A, “Amidinonaphthyl furancarboxylate derivatives and acid addition salts therof” (Torii & Co., Ltd., priority 1992, dated 1996).

Structures can show the parent of a compound that is named as a salt. Where two headings read alike, the source gives them in different places.

The subject of one test is Masugi's nephritis. Kind of test: Effectiveness in treating Masugi's nephritis (experimental glomerulonephritis), protein in urine. It counts as in vivo, rat. On the procedure: […] […] As the index to effectiveness, the protein concentration in urine was determined. That is, when inflammation develops in the kidney, it causes damage to renal tubules, etc., and a resultant increase in protein concentration in urine.

Another test deals with plasmin (Homo sapiens, UniProt P00747). As to the kind of experiment: anti-plasmin activity, hydrolysis of TAME (tosylarginine methyl ester). It counts as biochemical. The settings on record: hydrolysis of TAME; read-out: Pla: molar concentration inhibiting 50% of enzyme activity (IC50). As to the method: (§1) The values in Table 1 represent molar concentrations (IC50) of test compounds which inhibit 50% of the activity of each enzyme to hydrolyze TAME (tosylarginine methyl ester). The anti-trypsin, anti-plasmin, anti-kallikrein and anti-thrombin activities were determined according to the method of Muramatsu et al. (J. Biochem. (1965), volume 58, page 214).
plasmin, sequence (P00747 581-810 limits assumed, species assumed): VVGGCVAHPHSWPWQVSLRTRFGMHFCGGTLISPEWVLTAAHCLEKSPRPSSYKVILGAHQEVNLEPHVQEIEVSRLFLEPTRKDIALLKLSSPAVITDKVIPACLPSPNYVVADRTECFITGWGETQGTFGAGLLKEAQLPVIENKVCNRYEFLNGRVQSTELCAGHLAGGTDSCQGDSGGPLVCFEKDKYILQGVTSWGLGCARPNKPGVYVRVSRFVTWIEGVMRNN
plasmin, sequence (P00747 97-580 partner limits assumed, species assumed): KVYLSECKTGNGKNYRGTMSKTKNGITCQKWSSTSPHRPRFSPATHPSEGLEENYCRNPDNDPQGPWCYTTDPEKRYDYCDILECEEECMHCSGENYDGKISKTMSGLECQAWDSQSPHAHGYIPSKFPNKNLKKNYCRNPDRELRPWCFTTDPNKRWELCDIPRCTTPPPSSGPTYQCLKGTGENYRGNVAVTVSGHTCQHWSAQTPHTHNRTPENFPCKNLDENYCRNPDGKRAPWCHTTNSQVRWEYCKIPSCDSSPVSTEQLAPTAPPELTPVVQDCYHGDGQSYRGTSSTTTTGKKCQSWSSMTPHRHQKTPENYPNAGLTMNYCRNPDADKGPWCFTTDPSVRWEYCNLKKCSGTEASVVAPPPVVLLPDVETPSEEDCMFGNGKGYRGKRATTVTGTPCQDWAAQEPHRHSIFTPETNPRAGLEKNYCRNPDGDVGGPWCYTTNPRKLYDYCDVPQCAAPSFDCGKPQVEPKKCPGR

The next test deals with T1, C1s (Homo sapiens, UniProt P09871).
T1 sequence (P09871 16-688): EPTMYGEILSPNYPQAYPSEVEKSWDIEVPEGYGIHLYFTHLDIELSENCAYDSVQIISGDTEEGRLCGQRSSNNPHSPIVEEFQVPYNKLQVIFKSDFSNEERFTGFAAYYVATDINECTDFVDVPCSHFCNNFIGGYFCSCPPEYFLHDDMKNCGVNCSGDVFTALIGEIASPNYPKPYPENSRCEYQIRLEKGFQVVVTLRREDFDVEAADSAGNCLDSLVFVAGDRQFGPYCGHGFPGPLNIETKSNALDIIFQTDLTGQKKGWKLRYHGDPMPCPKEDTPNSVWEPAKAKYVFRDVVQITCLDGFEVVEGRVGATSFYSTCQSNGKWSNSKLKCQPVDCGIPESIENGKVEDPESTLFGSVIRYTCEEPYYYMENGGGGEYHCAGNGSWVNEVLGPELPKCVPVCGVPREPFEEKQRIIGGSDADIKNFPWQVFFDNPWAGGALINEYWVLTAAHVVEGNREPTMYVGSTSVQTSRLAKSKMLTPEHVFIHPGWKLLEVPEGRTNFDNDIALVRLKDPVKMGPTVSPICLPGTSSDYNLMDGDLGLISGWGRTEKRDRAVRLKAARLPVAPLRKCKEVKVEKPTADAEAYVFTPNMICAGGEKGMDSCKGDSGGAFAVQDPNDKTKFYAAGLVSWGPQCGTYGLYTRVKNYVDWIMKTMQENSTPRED
As to the kind of experiment: anti-complement (anti-C1 esterase) activity, C1s hydrolysis of ATEE (acetyltyrosine ethyl ester). It counts as biochemical. Conditions: hydrolysis of ATEE; read-out: Cls: molar concentration inhibiting 50% of C1s activity (IC50).

Another test relates to kallikrein. As to the kind of experiment: anti-kallikrein activity, hydrolysis of TAME (tosylarginine methyl ester). It counts as biochemical. Conditions: hydrolysis of TAME; read-out: Kal: molar concentration inhibiting 50% of enzyme activity (IC50). As to the method: as §1
For the next test, the target named is T2, C1r (Homo sapiens, UniProt P00736).
T2 sequence (P00736 18-705): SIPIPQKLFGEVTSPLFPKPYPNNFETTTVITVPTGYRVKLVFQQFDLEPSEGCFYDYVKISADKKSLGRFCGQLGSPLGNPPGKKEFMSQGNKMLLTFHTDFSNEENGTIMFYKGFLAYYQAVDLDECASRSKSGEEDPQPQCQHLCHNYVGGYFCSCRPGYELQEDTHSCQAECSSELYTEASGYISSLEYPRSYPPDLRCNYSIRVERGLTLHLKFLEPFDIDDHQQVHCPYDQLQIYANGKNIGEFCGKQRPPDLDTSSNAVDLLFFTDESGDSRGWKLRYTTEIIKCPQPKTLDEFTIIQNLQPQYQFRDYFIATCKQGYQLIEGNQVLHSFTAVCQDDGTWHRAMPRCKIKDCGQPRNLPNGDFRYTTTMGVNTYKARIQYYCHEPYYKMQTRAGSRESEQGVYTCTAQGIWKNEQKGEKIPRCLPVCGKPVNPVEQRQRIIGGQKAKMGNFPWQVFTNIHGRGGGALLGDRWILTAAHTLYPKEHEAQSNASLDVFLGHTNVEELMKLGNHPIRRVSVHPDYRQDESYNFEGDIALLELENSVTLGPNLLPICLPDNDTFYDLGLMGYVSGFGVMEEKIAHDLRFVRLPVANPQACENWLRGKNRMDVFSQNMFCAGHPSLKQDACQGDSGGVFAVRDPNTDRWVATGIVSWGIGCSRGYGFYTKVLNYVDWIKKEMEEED
As to the kind of experiment: anti-complement (anti-C1 esterase) activity, C1r hydrolysis of AAME (acetyl-arginine methyl ester). It counts as biochemical.

The target in a further test is T3, trypsin (Bos taurus, UniProt P00760).
T3 sequence (P00760 24-246): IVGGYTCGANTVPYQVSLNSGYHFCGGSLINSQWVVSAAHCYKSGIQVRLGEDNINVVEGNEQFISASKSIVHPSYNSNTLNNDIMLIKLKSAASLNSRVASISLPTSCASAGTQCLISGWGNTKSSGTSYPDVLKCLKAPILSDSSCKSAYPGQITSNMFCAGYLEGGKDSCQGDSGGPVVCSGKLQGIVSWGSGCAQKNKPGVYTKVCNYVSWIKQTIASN
As to the kind of experiment: anti-trypsin activity, hydrolysis of TAME (tosylarginine methyl ester). It counts as biochemical. The settings on record: hydrolysis of TAME; read-out: Try: molar concentration inhibiting 50% of enzyme activity (IC50).

The target in a further test is thrombin (Homo sapiens, UniProt P00734). Kind of test: anti-thrombin activity, hydrolysis of TAME (tosylarginine methyl ester). It counts as biochemical. The settings on record: hydrolysis of TAME; read-out: Thr: molar concentration inhibiting 50% of enzyme activity (IC50). As to the method: as §1
Where [1] appears, read: 30 mg/kg, oral, mean ± standard deviation, 7 animals, control group 40.8 ± 15.1.
The mark [2] stands for this setting: hydrolysis of AAME, read-out: Clr: molar concentration inhibiting 50% of C1r activity (IC50).
Where [3] appears, read: 100 mg/kg, oral, mean ± standard deviation, 7 animals, control group 40.8 ± 15.1.

Protocol for C1s: The anti-C1 esterase (C1r, C1s) activity was determined according to the method of Okamura et al. (Biochem. Biophys. Acta (1973), volume 295, pages 252-257). […] The values for C1s represent molar concentrations (IC50) of test compounds which inhibit 50% of the activity of C1s to hydrolyze ATEE (acetyltyrosine ethyl ester).

`N=C(N)c1ccc2cc(OC(=O)c3ccc(CNC(=O)CCC(N)=O)o3)ccc2c1` [Example 32, 6-Amidino-2-naphthyl 5-(3-carbamoylpropionylaminomethyl)furan-2-carboxylatehydrochloride]: the “Protein concentration in urine” value with Masugi's nephritis (setting [1]) came out at 22.8 ± 13.9 mg/mL.

For `Cl.N=C(N)c1ccc2cc(OC(=O)c3ccc(CNC(=O)[C@H]4CC[C@H](C(=O)O)CC4)o3)ccc2c1` [Example 11, 6-Amidino-2-naphthyl 5-(trans-4-carboxy-1-cyclohexanoylaminomethyl)furan-2-carboxylate hydrochloride], the “Protein concentration in urine” value with Masugi's nephritis (po, 30 mg/kg) was determined as 33.6 ± 17.8 mg/mL. Also, the IC50 was determined as 400 nM on plasmin; 280 nM at C1s; 870 nM in the test with kallikrein; 1200 nM against C1r; 660 nM on trypsin; 1200 nM on thrombin.

Turning to `Cl.N=C(N)c1ccc2cc(OC(=O)c3ccc(CNC(=O)CCCCC(=O)O)o3)ccc2c1` [Example 23, 6-Amidino-2-naphthyl 5-(5-carboxyvalerylaminomethyl)furan-2-carboxylate hydrochloride], the “Protein concentration in urine” value in the test with Masugi's nephritis (setting [1]) worked out at 24.2 ± 18.8 mg/mL.

As for `Cl.N=C(N)c1ccc2cc(OC(=O)c3ccc(CNC(=O)CCC(=O)NCC(=O)O)o3)ccc2c1` [Example 36, 6-Amidino-2-naphthyl 5-(3-carboxymethylcarbamoylpropionylaminomethyl)furan-2-carboxylate hydrochloride], in the test with Masugi's nephritis (setting [1]), the “Protein concentration in urine” value turned out to be 26.2 ± 14.7 mg/mL.

On to `Cl.N=C(N)c1ccc2cc(OC(=O)c3ccc(CNC(=O)Cc4ccc(C(=O)O)cc4)o3)ccc2c1` [Example 6, 6-Amidino-2-naphthyl 5-(4-carboxyphenylacetylaminomethyl)furan-2-carboxylate hydrochloride], for which the “Protein concentration in urine” value in the test on Masugi's nephritis (setting [1]) was 19.7 ± 11.1 mg/mL. In addition, the IC50 was 260 nM on plasmin; 270 nM on C1s; 830 nM in the test on kallikrein; 23 nM at C1r (setting [2]); 390 nM at trypsin; 10000 nM on thrombin.

As for `Cl.N=C(N)c1ccc2cc(OC(=O)c3ccc(CNC(=O)/C=C/C(=O)O)o3)ccc2c1` [Example 13, 6-Amidino-2-naphthyl 5-(trans-2-carboxyvinyl)carbonylaminomethylfuran-2-carboxylate hydrochloride], the “Protein concentration in urine” value in the test with Masugi's nephritis (setting [1]) was 24.2 ± 16.8 mg/mL.

On to `N=C(N)c1ccc2cc(OC(=O)c3ccc(CNC(=O)c4ccc(NC5=NCCN5)cc4)o3)ccc2c1` [Known compd. I, reference compound], for which, in the test on Masugi's nephritis (setting [3]), the “Protein concentration in urine” value was found to be 24.4 ± 11.9 mg/mL.

As to `N=C(N)c1ccc2cc(OC(=O)c3ccc(CN)o3)ccc2c1` [Known compd. II, reference compound], the “Protein concentration in urine” value in the test with Masugi's nephritis (setting [3]) was 22.1 ± 11.4 mg/mL.

Consider `N=C(N)c1ccc2cc(OC(=O)c3ccc(CNC(=O)CC4(CC(=O)O)CCCC4)o3)ccc2c1` [Example 44, hydrochloride], for which the “Protein concentration in urine” value with Masugi's nephritis (setting [1]) was 20.0 ± 12.9 mg/mL.

As for `N=C(N)c1ccc2cc(OC(=O)c3ccc(CNC(=O)c4ccc(CC(=O)O)cc4)o3)ccc2c1` [Example 7, 6-Amidino-2-naphthyl 5-(4-carboxymethylbenzoylaminomethyl)furan-2-carboxylate hydrochloride], the IC50 was determined as 300 nM on plasmin; 460 nM at C1s; 1500 nM in the test with kallikrein; 740 nM on C1r (setting [2]); 1800 nM on trypsin; 400 nM on thrombin.

With `Cl.N=C(N)c1ccc2cc(OC(=O)c3ccc(CNC(=O)CCCCCCCC(=O)O)o3)ccc2c1` [Example 26, 6-Amidino-2-naphthyl 5-(8-carboxyoctanoylaminomethyl)furan-2-carboxylate hydrochloride], the “Protein concentration in urine” value in the test with Masugi's nephritis (setting [1]) is 25.0 ± 15.4 mg/mL.

As for `CC(C)(C)OC(=O)c1ccc(CC(=O)NCc2ccc(C(=O)Oc3ccc4cc(C(=N)N)ccc4c3)o2)cc1` [Example 5, 6-Amidino-2-naphthyl 5-(4-t-butoxycarbonylphenylacetylaminomethyl)furan-2-carboxylate hydrochloride], the IC50 on plasmin is 100 nM; on C1s it was 360 nM; in the test on kallikrein, 300 nM; on C1r (setting [2]) it was 73 nM; on trypsin it was 340 nM; at thrombin, 180 nM.

As to `CC(C)(C)OC(=O)CCC(NC(=N)N)C(=O)NCc1ccc(C(=O)Oc2ccc3cc(C(=N)N)ccc3c2)o1` (stereo not drawn) [Example 20, 6-amidino-2-naphthyl 5-(4-t-butoxycarbonyl-2-guanidinobutyrylaminomethyl)furan-2-carboxylate hydrochloride hydrobromide], the IC50 stood at 180 nM on plasmin; 390 nM on C1s; 130 nM in the test with kallikrein; 380 nM on C1r (setting [2]); 2000 nM on trypsin; 460 nM on thrombin.

Regarding `N=C(N)NC(CCC(=O)O)C(=O)NCc1ccc(C(=O)Oc2ccc3cc(C(=N)N)ccc3c2)o1` (stereo not drawn) [Example 29, 6-Amidino-2-naphthyl 5-(4-carboxy-2-guanidinobutyrylaminomethyl)furan-2-carboxylate dihydrobromide], the IC50 on plasmin was determined as 230 nM; on C1s, 360 nM; in the test with kallikrein, 240 nM; on C1r (setting [2]), 440 nM; at trypsin, 1200 nM; at thrombin it was 1600 nM.

For `CCC(C(=O)O)C(=O)NCc1ccc(C(=O)Oc2ccc3cc(C(=N)N)ccc3c2)o1.Cl` (stereo not drawn) [Example 38, 6-Amidino-2-naphthyl 5-(2-carboxybutyrylaminomethyl)furan-2-carboxylate hydrochloride], in the test on Masugi's nephritis (setting [1]), the “Protein concentration in urine” value is 17.8 ± 12.4 mg/mL.

In the case of `CC(CC(=O)O)CC(=O)NCc1ccc(C(=O)Oc2ccc3cc(C(=N)N)ccc3c2)o1.Cl` (stereo not drawn) [Example 43, 6-Amidino-2-naphthyl 5-(4-carboxy-3-methylbutyrylaminomethyl)furan-2-carboxylate hydrochloride], the “Protein concentration in urine” value with Masugi's nephritis (setting [1]) came out at 21.8 ± 10.3 mg/mL.

Consider `COC(=O)Cc1ccc(C(=O)NCc2ccc(C(=O)Oc3ccc4cc(C(=N)N)ccc4c3)o2)cc1` [Example 4, 6-Amidino-2-naphthyl 5-(4-methoxycarbonylmethylbenzoylaminomethyl)furan-2-carboxylate hydrochloride], for which the IC50 on plasmin is 72 nM; on C1s it was 160 nM; in the test on kallikrein, 210 nM; on C1r (setting [2]) it was 64 nM; at trypsin it was 340 nM; at thrombin, 70 nM.
